Experiment [1] has as its system Malassezia. In words: Minimal inhibitory concentration of sulfur (known value). Type of experiment: cell-based. The settings on record: generally accepted MIC, gray box in FIGS. 1-4. The protocol: A dissolution and diffusion model is utilized to help dimension sulfur solubility in sebum over a 24 hour period. The model predicts where sulfur concentration will rise above the minimal inhibitory concentration (MIC is known to be in the range of 10-50 ppm for sulfur), for the fungus that causes dandruff (Malassezia). The model factors in sulfur dissolution varying sebum thickness and sebum production rate over the 24 hour period as well as a loss term for sulfur migration into the scalp/stratum corneum. FIGS. 1-4) show simulation outputs for mean sulfur particles sizes, 2, 34, 100 and 150 micron sulfur particles respectively wherein each graph is a compilation of curves representing variations in initial sebum thickness and production rate. The gray box in each figure represents a range of sulfur concentrations that encompass the generally accepted MIC (log 10(MIC) range is 1-1.7). It is observed from the simulations that as particle size increases, the approximate number of hours that sulfur concentration is above the MIC expands until the particle size of about 150 microns, wherein the dissolution of sulfur in sebum becomes the rate limiting step and the concentration of sulfur never exceeds the MIC needed for a dandruff benefit.

For experiment [2], the system named is Malassezia. The conditions noted are these: fungus that causes dandruff (Malassezia); known range; cited from earlier work.

This is an account of results in patent US11679065B2, “Compositions with sulfur having enhanced efficacy and aesthetics” (The Procter & Gamble Company, priority 2020, dated 2023).

As for `S1SSSSSSS1` [Sulfur], the “log 10(MIC) range” value in the experiment with Malassezia [1] is reported as 1-1.7. Besides, the “minimal inhibitory concentration (MIC)” value with Malassezia [2] is 10-50 ppm.
